These molecules were tested on RS4; 11 with G101V mutation (assay: In vitro anti-proliferation assay (ATPlite luminescence) in BCL-2-dependent ALL cell line RS4;11 with G101V mutation). Details: Homo sapiens, RS4-11, 72 h; read-out: RS411-G101V IC50.
Format: cell-based
How it was run: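 IC50 came from luminescent ATP quantification (ATPlite) following cell lysis. Compound dose ranges were applied for roughly 72 h to about 1×10^4 G101V-mutant RS4;11 cells per well, in 10% FBS medium.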

SMILES	IC50 [nM]
CC[C@@H](c1ccc(F)c(F)c1)N1CCN(C2CC3(CCN(c4ccc(C(=O)NS(=O)(=O)c5cc6c(c([N+](=O)[O-])c5)N[C@H](C5CCOCC5)CO6)c(N5c6cc7cc[nH]c7nc6O[C@H]6COCC[C@@H]65)c4)CC3)C2)[C@H](c2ccccc2OC(C)C)C1 [Example 247, 4-(2-((R)-4-((S)-1-(3,4-difluorophenyl)propyl)-2-(2-isopropoxyphenyl)piperazin-1-yl)-7-azaspiro[3.5]nonan-7-yl)-N-(((R)-5-nitro-3-(tetrahydro-2H-pyran-4-yl)-3,4-dihydro-2H-benzo[b][1,4]oxazin-7-yl)sulfonyl)-2-((5aS,9aR)-6,7,9,9a-tetrahydro-1H-pyrano[3,4-b]pyrrolo[3′,2′:5,6]pyrido[3,2-e][1,4]oxazin-5(5aH)-yl)benzamide]	45.7
CC(C)Oc1ccccc1[C@@H]1CN(Cc2cccnc2)CCN1C1CC2(CCN(c3ccc(C(=O)NS(=O)(=O)c4cc5c(c([N+](=O)[O-])c4)N[C@H](C4CCOCC4)CO5)c(N4c5cc6cc[nH]c6nc5O[C@H]5COCC[C@@H]54)c3)CC2)C1 [Example 253, 4-(2-((R)-2-(2-isopropoxyphenyl)-4-(pyridin-3-ylmethyl)piperazin-1-yl)-7-azaspiro[3.5]nonan-7-yl)-N-(((R)-5-nitro-3-(tetrahydro-2H-pyran-4-yl)-3,4-dihydro-2H-benzo[b][1,4]oxazin-7-yl)sulfonyl)-2-((5aS,9aR)-6,7,9,9a-tetrahydro-1H-pyrano[3,4-b]pyrrolo[3′,2′:5,6]pyrido[3,2-e][1,4]oxazin-5(5aH)-yl)benzamide]	10.2
CC(C)Oc1ccccc1[C@@H]1CN(Cc2ccc(C(C)(C)C)nc2)CCN1C1CC2(CCN(c3ccc(C(=O)NS(=O)(=O)c4cc5c(c([N+](=O)[O-])c4)N[C@H](C4CCOCC4)CO5)c(N4c5cc6cc[nH]c6nc5O[C@H]5COCC[C@@H]54)c3)CC2)C1 [Example 256, 4-(2-((R)-4-((6-(tert-butyl)pyridin-3-yl)methyl)-2-(2-isopropoxyphenyl)piperazin-1-yl)-7-azaspiro[3.5]nonan-7-yl)-N-(((R)-5-nitro-3-(tetrahydro-2H-pyran-4-yl)-3,4-dihydro-2H-benzo[b][1,4]oxazin-7-yl)sulfonyl)-2-((5aS,9aR)-6,7,9,9a-tetrahydro-1H-pyrano[3,4-b]pyrrolo[3′,2′:5,6]pyrido[3,2-e][1,4]oxazin-5(5aH)-yl)benzamide]	11.8

The remaining lines, values ahead:

IC50 [nM]	SMILES
1.88	Cc1ccccc1[C@@H]1CN(Cc2cnc(N3CCOC[C@@H]3C)c3c2C(C)(C)CCO3)CCN1C1CC2(CCN(c3ccc(C(=O)NS(=O)(=O)c4cc5c(c([N+](=O)[O-])c4)N[C@H](C4CCOCC4)CO5)c(N4c5cc6cc[nH]c6nc5O[C@H]5COCC[C@@H]54)c3)CC2)C1 [Example 252, 4-(2-((R)-4-((4,4-dimethyl-8-((S)-3-methylmorpholino)-3,4-dihydro-2H-pyrano[2,3-c]pyridin-5-yl)methyl)-2-(o-tolyl)piperazin-1-yl)-7-azaspiro[3.5]nonan-7-yl)-N-(((R)-5-nitro-3-(tetrahydro-2H-pyran-4-yl)-3,4-dihydro-2H-benzo[b][1,4]oxazin-7-yl)sulfonyl)-2-((5aS,9aR)-6,7,9,9a-tetrahydro-1H-pyrano[3,4-b]pyrrolo[3′,2′:5,6]pyrido[3,2-e][1,4]oxazin-5(5aH)-yl)benzamide]
3.19	Cc1ccc(CN2CCN(C3CC4(CCN(c5ccc(C(=O)NS(=O)(=O)c6cc7c(c([N+](=O)[O-])c6)N[C@H](C6CCOCC6)CO7)c(N6c7cc8cc[nH]c8nc7O[C@H]7COCC[C@@H]76)c5)CC4)C3)[C@H](c3ccccc3OC(C)C)C2)cn1 [Example 254, 4-(2-((R)-2-(2-isopropoxyphenyl)-4-((6-methylpyridin-3-yl)methyl)piperazin-1-yl)-7-azaspiro[3.5]nonan-7-yl)-N-(((R)-5-nitro-3-(tetrahydro-2H-pyran-4-yl)-3,4-dihydro-2H-benzo[b][1,4]oxazin-7-yl)sulfonyl)-2-((5aS,9aR)-6,7,9,9a-tetrahydro-1H-pyrano[3,4-b]pyrrolo[3′,2′:5,6]pyrido[3,2-e][1,4]oxazin-5(5aH)-yl)benzamide]
3.9	CC(C)Oc1ccccc1[C@@H]1CN(Cc2ccc(C3CC3)nc2)CCN1C1CC2(CCN(c3ccc(C(=O)NS(=O)(=O)c4cc5c(c([N+](=O)[O-])c4)N[C@H](C4CCOCC4)CO5)c(N4c5cc6cc[nH]c6nc5O[C@H]5COCC[C@@H]54)c3)CC2)C1 [Example 257, 4-(2-((R)-4-((6-cyclopropylpyridin-3-yl)methyl)-2-(2-isopropoxyphenyl)piperazin-1-yl)-7-azaspiro[3.5]nonan-7-yl)-N-(((R)-5-nitro-3-(tetrahydro-2H-pyran-4-yl)-3,4-dihydro-2H-benzo[b][1,4]oxazin-7-yl)sulfonyl)-2-((5aS,9aR)-6,7,9,9a-tetrahydro-1H-pyrano[3,4-b]pyrrolo[3′,2′:5,6]pyrido[3,2-e][1,4]oxazin-5(5aH)-yl)benzamide]
11.7	COc1ccc(CN2CCN(C3CC4(CCN(c5ccc(C(=O)NS(=O)(=O)c6cc7c(c([N+](=O)[O-])c6)N[C@H](C6CCOCC6)CO7)c(N6c7cc8cc[nH]c8nc7O[C@H]7COCC[C@@H]76)c5)CC4)C3)[C@H](c3ccccc3OC(C)C)C2)cn1 [Example 258, 4-(2-((R)-2-(2-isopropoxyphenyl)-4-((6-methoxypyridin-3-yl)methyl)piperazin-1-yl)-7-azaspiro[3.5]nonan-7-yl)-N-(((R)-5-nitro-3-(tetrahydro-2H-pyran-4-yl)-3,4-dihydro-2H-benzo[b][1,4]oxazin-7-yl)sulfonyl)-2-((5aS,9aR)-6,7,9,9a-tetrahydro-1H-pyrano[3,4-b]pyrrolo[3′,2′:5,6]pyrido[3,2-e][1,4]oxazin-5(5aH)-yl)benzamide]

Same assay, conditions: cellular anti-proliferative IC50, about 72 hours, medium with 10% FBS, ATPlite; read-out: RS411-G101V IC50

SMILES	IC50 [nM]
CC(C)Oc1ccccc1[C@@H]1CN([C@@H]2COCc3c2ccc(F)c3F)CCN1C1CC2(CCN(c3ccc(C(=O)NS(=O)(=O)c4cc5c(c([N+](=O)[O-])c4)N[C@H](C4CCOCC4)CO5)c(N4c5cc6cc[nH]c6nc5O[C@H]5COCC[C@@H]54)c3)CC2)C1 [Example 248, 4-{2-[(2R)-4-[(4S)-7,8-difluoro-3,4-dihydro-1H-2-benzopyran-4-yl]-2-(2-isopropoxyphenyl)piperazin-1-yl]-7-azaspiro[3.5]nonan-7-yl}-2-[(3R,8S)-2,5-dioxa-9,15,17-triazatetracyclo[8.7.0.0^{3,8}.0^{12,16}]heptadeca-1(10),11,13,16-tetraen-9-yl]-N-[(3R)-5-nitro-3-(oxan-4-yl)-3,4-dihydro-2H-1,4-benzoxazin-7-ylsulfonyl]benzamide]	9.68
CC(C)Oc1ccccc1[C@@H]1CN([C@H]2COCc3c2ccc(F)c3F)CCN1C1CC2(CCN(c3ccc(C(=O)NS(=O)(=O)c4cc5c(c([N+](=O)[O-])c4)N[C@H](C4CCOCC4)CO5)c(N4c5cc6cc[nH]c6nc5O[C@H]5COCC[C@@H]54)c3)CC2)C1 [Example 249, 4-{2-[(2R)-4-[(4R)-7,8-difluoro-3,4-dihydro-1H-2-benzopyran-4-yl]-2-(2-isopropoxyphenyl)piperazin-1-yl]-7-azaspiro[3.5]nonan-7-yl}-2-[(3R,8S)-2,5-dioxa-9,15,17-triazatetracyclo[8.7.0.0^{3,8}.0^{12,16}]heptadeca-1(10),11,13,16-tetraen-9-yl]-N-[(3R)-5-nitro-3-(oxan-4-yl)-3,4-dihydro-2H-1,4-benzoxazin-7-ylsulfonyl]benzamide]	12
COc1c(N2CCOCC2)ncc2c1COC[C@H]2N1CCN(C2CC3(CCN(c4ccc(C(=O)NS(=O)(=O)c5cc6c(c([N+](=O)[O-])c5)N[C@H](C5CCOCC5)CO6)c(N5c6cc7cc[nH]c7nc6O[C@H]6COCC[C@@H]65)c4)CC3)C2)[C@H](c2ccccc2OC(C)C)C1 [Example 250, 2-[(3R,8S)-2,5-dioxa-9,15,17-triazatetracyclo[8.7.0.0^{3,8}.0^{12,16}]heptadeca-1(10),11,13,16-tetraen-9-yl]-4-{2-[(2R)-2-(2-isopropoxyphenyl)-4-[(4S)-8-methoxy-7-(morpholin-4-yl)-1H,3H,4H-pyrano[4,3-c]pyridin-4-yl]piperazin-1-yl]-7-azaspiro[3.5]nonan-7-yl}-N-[(3R)-5-nitro-3-(oxan-4-yl)-3,4-dihydro-2H-1,4-benzoxazin-7-ylsulfonyl]benzamide]	10.1
COc1c(N2CCOC[C@@H]2C)ncc2c1COC[C@@H]2N1CCN(C2CC3(CCN(c4ccc(C(=O)NS(=O)(=O)c5cc6c(c([N+](=O)[O-])c5)N[C@H](C5CCOCC5)CO6)c(N5c6cc7cc[nH]c7nc6O[C@H]6COCC[C@@H]65)c4)CC3)C2)[C@H](c2ccccc2OC(C)C)C1 [Example 251, 2-[(3R,8S)-2,5-dioxa-9,15,17-triazatetracyclo[8.7.0.0^{3,8}.0^{12,16}]heptadeca-1(10),11,13,16-tetraen-9-yl]-4-{2-[(2R)-2-(2-isopropoxyphenyl)-4-[(4R)-8-methoxy-7-[(3S)-3-methylmorpholin-4-yl]-1H,3H,4H-pyrano[4,3-c]pyridin-4-yl]piperazin-1-yl]-7-azaspiro[3.5]nonan-7-yl}-N-[(3R)-5-nitro-3-(oxan-4-yl)-3,4-dihydro-2H-1,4-benzoxazin-7-ylsulfonyl]benzamide]	26.9
CC(C)Oc1ccccc1[C@@H]1CN(Cc2ccc(C(C)C)nc2)CCN1C1CC2(CCN(c3ccc(C(=O)NS(=O)(=O)c4cc5c(c([N+](=O)[O-])c4)N[C@H](C4CCOCC4)CO5)c(N4c5cc6cc[nH]c6nc5O[C@H]5COCC[C@@H]54)c3)CC2)C1 [Example 255, 2-[(3R,8S)-2,5-dioxa-9,15,17-triazatetracyclo[8.7.0.0^{3,8}.0^{12,16}]heptadeca-1(10),11,13,16-tetraen-9-yl]-4-{2-[(2R)-2-(2-isopropoxyphenyl)-4-[(6-isopropylpyridin-3-yl)methyl]piperazin-1-yl]-7-azaspiro[3.5]nonan-7-yl}-N-[(3R)-5-nitro-3-(oxan-4-yl)-3,4-dihydro-2H-1,4-benzoxazin-7-ylsulfonyl]benzamide]	6.39

Source: US20250114374A1, “BCL-2 INHIBITORS” (Newave Pharmaceutical Inc., priority 2021, published 2025)
